According to paper PMC3586822 (Chemico-biological interactions, 2012):

Molecular target: human AChE (Homo sapiens, UniProt P22303)
Assay: coupled Ellman assay, second-order hydrolysis
Format: biochemical

human AChE, sequence (P22303 32-614): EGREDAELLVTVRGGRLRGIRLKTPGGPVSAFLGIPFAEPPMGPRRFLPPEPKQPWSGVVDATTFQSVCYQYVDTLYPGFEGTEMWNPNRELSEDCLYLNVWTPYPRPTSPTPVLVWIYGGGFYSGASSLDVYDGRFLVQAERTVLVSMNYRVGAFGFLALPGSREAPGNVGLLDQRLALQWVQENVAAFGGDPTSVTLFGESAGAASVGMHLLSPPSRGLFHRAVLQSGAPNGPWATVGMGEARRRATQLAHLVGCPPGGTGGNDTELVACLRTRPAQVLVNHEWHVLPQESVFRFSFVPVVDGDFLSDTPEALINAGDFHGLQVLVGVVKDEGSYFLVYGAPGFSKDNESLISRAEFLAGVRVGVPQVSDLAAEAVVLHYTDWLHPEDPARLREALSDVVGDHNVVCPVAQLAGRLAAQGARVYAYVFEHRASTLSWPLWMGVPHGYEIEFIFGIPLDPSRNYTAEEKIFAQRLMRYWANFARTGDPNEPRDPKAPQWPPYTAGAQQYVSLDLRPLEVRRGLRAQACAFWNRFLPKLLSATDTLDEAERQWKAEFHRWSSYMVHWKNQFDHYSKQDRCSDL

## Cc1ccc2c(c1)sc(-c1ccc(N(C)C)cc1)[n+]2C [thioflavin T]
  Ki: 1330 ± 50 nM
